Patent US9802927B2, “Oxadiazine compounds and methods of use thereof” (Denali Therapeutics, Inc., priority 2015, dated 2017)

Test system: Aβ42
Test: In vitro cell screening assay in H4 cells expressing human APP751: Aβ42 by sandwich ELISA
Assay type: cell-based
Conditions: Homo sapiens, compounds 0.003-10 μM, incubated overnight (16-18 h), sandwich ELISA of supernatant
Method in brief: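 Secreted Aβ42 measured by sandwich ELISA, C-terminal-specific capture and 4G8-HRP detection, TMB read at 450 nm, from supernatants of APP751-expressing H4 cells exposed overnight (16-18 h) to 0.003-10 μM compound in Pro293 medium, 0.33% DMSO. Data scaled between DMSO and DAPT controls; EC50 from variable-slope nonlinear regression.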

With `COc1nc(C2=NOCC(c3cnn(C)c3)N2)ccc1-n1cnc(C)c1` (single isomer, unassigned; (-)) [Example 166A, (−)-3-(6-methoxy-5-(4-methyl-1H-imidazol-1-yl)pyridin-2-yl)-5-(1-methyl-1H-pyrazol-4-yl)-5,6-dihydro-4H-1,2,4-oxadiazine] the EC50 was over 3000 nM.

Same assay, conditions: compounds 0.003-10 μM, incubated overnight (16-18 h), sandwich ELISA of supernatant

Going from `COc1nc(C2=NOCC(c3cccc(Cl)c3)N2)ccc1-n1cnc(C)c1` (single isomer, unassigned; (-)) [Example 244A, (−)-5-(3-chlorophenyl)-3-(6-methoxy-5-(4-methyl-1H-imidazol-1-yl)pyridin-2-yl)-5,6-dihydro-4H-1,2,4-oxadiazine] to `COc1nc(C2=NOCC(c3cccc(C4CC4)c3)N2)ccc1-n1cnc(C)c1` (single isomer, unassigned; (-)) [Example 127A, (−)-5-(3-cyclopropylphenyl)-3-(6-methoxy-5-(4-methyl-1H-imidazol-1-yl)pyridin-2-yl)-5,6-dihydro-4H-1,2,4-oxadiazine], the EC50 rises from 668 nM to 1030 nM (1.5-fold).

Going from `COc1nc(C2=NOCC(c3ccc4sc(C)nc4c3)N2)ccc1-n1cnc(C)c1` (single isomer, unassigned; (+)) [Example 215B, (+)-3-(6-methoxy-5-(4-methyl-1H-imidazol-1-yl)pyridin-2-yl)-5-(2-methylbenzo[d]thiazol-5-yl)-5,6-dihydro-4H-1,2,4-oxadiazine] to `COc1nc(C2=NOCC(c3ccc4scnc4c3)N2)ccc1-n1cnc(C)c1` (single isomer, unassigned; (+)) [Example 240B, (+)-5-(benzo[d]thiazol-5-yl)-3-(6-methoxy-5-(4-methyl-1H-imidazol-1-yl)pyridin-2-yl)-5,6-dihydro-4H-1,2,4-oxadiazine], the EC50 rises from 52.7 nM to 109 nM (2.1-fold). The first is the more potent here.

First: COc1nc(C2=NOCC(c3cn(C)c4ncccc34)N2)ccc1-n1cnc(C)c1 (single isomer, unassigned; (-)) [Example 195A, (−)-3-(6-methoxy-5-(4-methyl-1H-imidazol-1-yl)pyridin-2-yl)-5-(1-methyl-1H-pyrrolo [2,3-b]pyridin-3-yl)-5,6-dihydro-4H-1,2,4-oxadiazine]
Second: COc1nc(C2=NOCC(c3cn(C)c4ncc(C(F)(F)F)cc34)N2)ccc1-n1cnc(C)c1 (single isomer, unassigned; (-)) [Example 206A, (−)-3-(6-methoxy-5-(4-methyl-1H-imidazol-1-yl)pyridin-2-yl)-5-(1-methyl-5-(trifluoromethyl)-1H-pyrrolo [2,3-b]pyridin-3-yl)-5,6-dihydro-4H-1,2,4-oxadiazine]
The EC50 of the first is 2.6-fold higher: 2110 nM for the first, 800 nM for the second.

Going from `COc1nc(C2=NOCC(c3cc4ccccc4o3)N2)ccc1-n1cnc(C)c1` (single isomer, unassigned; (-)) [Example 186A, (−)-5-(benzofuran-2-yl)-3-(6-methoxy-5-(4-methyl-1H-imidazol-1-yl)pyridin-2-yl)-5,6-dihydro-4H-1,2,4-oxadiazine] to `COc1nc(C2=NOCC(c3cc4ccc(F)cc4o3)N2)ccc1-n1cnc(C)c1` (single isomer, unassigned; (+)) [Example 52B, (+)-5-(6-fluorobenzofuran-2-yl)-3-(6-methoxy-5-(4-methyl-1H-imidazol-1-yl)pyridin-2-yl)-5,6-dihydro-4H-1,2,4-oxadiazine], the EC50 falls from 1170 nM to 24.6 nM (48-fold).

First: COc1nc(C2=NOCC(c3ccc4ncsc4c3)N2)ccc1-n1cnc(C)c1 (single isomer, unassigned; (-)) [Example 183A, (−)-5-(benzo [d]thiazol-6-yl)-3-(6-methoxy-5-(4-methyl-1H-imidazol-1-yl)pyridin-2-yl)-5,6-dihydro-4H-1,2,4-oxadiazine]
Second: COc1nc(C2=NOCC(c3cccc(Cl)c3)N2)ccc1-n1cnc(C)c1 (single isomer, unassigned; (+)) [Example 244B, (+)-5-(3-chlorophenyl)-3-(6-methoxy-5-(4-methyl-1H-imidazol-1-yl)pyridin-2-yl)-5,6-dihydro-4H-1,2,4-oxadiazine]
The EC50 of the first is 67-fold higher: 1760 nM for the first, 26.3 nM for the second. The second is the more potent here.

Compared with `COc1nc(C2=NOCC(c3cn(C)c4cc(F)c(F)cc34)N2)ccc1-n1cnc(C)c1` (single isomer, unassigned; (-)) [Example 223A, (−)-5-(5,6-difluoro-1-methyl-1H-indol-3-yl)-3-(6-methoxy-5-(4-methyl-1H-imidazol-1-yl)pyridin-2-yl)-5,6-dihydro-4H-1,2,4-oxadiazine], `COc1nc(C2=NOCC(c3cn(C)c4ccc(F)c(F)c34)N2)ccc1-n1cnc(C)c1` (single isomer, unassigned; (+)) [Example 220B, (+)-5-(4,5-difluoro-1-methyl-1H-indol-3-yl)-3-(6-methoxy-5-(4-methyl-1H-imidazol-1-yl)pyridin-2-yl)-5,6-dihydro-4H-1,2,4-oxadiazine] is 24-fold lower in EC50: 130 nM for the first, 5.5 nM for the second. The second is the more potent here.

First: COc1nc(C2=NOCC(c3ccc(OC(F)(F)F)cc3)N2)ccc1-n1cnc(C)c1 (single isomer, unassigned; (+)) [Example 70B, (+)-3-(6-methoxy-5-(4-methyl-1H-imidazol-1-yl)pyridin-2-yl)-5-(4-(trifluoromethoxy)phenyl)-5,6-dihydro-4H-1,2,4-oxadiazine]
Second: COc1nc(C2=NOCC(c3ccc(C)cc3)N2)ccc1-n1cnc(C)c1 (single isomer, unassigned; (+)) [Example 227B, (+)-3-(6-methoxy-5-(4-methyl-1H-imidazol-1-yl)pyridin-2-yl)-5-(p-tolyl)-5,6-dihydro-4H-1,2,4-oxadiazine]
The EC50 of the first is 3.4-fold lower: 21.8 nM for the first, 73.8 nM for the second. The first is the more potent here.

`COc1ccc2c(C3CON=C(c4ccc(-n5cnc(C)c5)c(OC)n4)N3)cn(C)c2c1` (single isomer, unassigned; (+)) [Example 258B, (+)-5-(6-methoxy-1-methyl-1H-indol-3-yl)-3-(6-methoxy-5-(4-methyl-1H-imidazol-1-yl)pyridin-2-yl)-5,6-dihydro-4H-1,2,4-oxadiazine] and `COc1nc(C2=NOCC(c3cn(C)c4cccc(C(F)(F)F)c34)N2)ccc1-n1cnc(C)c1` (single isomer, unassigned; (-)) [Example 230B, (−)-3-(6-methoxy-5-(4-methyl-1H-imidazol-1-yl)pyridin-2-yl)-5-(1-methyl-4-(trifluoromethyl)-1H-indol-3-yl)-5,6-dihydro-4H-1,2,4-oxadiazine] are within 1.5-fold of each other in EC50: 23.5 nM for the first, 25.2 nM for the second.

First: COc1nc(C2=NOCC(c3ccc(C4CC4)cc3)N2)ccc1-n1cnc(C)c1 (single isomer, unassigned; (+)) [Example 116B, (+)-5-(4-cyclopropylphenyl)-3-(6-methoxy-5-(4-methyl-1H-imidazol-1-yl)pyridin-2-yl)-5,6-dihydro-4H-1,2,4-oxadiazine]
Second: COc1nc(C2=NOCC(c3ccc(C#N)cc3)N2)ccc1-n1cnc(C)c1 (single isomer, unassigned; (+)) [Example 151B, (+)-4-(3-(6-methoxy-5-(4-methyl-1H-imidazol-1-yl)pyridin-2-yl)-5,6-dihydro-4H-1,2,4-oxadiazin-5-yl) benzonitrile]
The EC50 of the first is 12-fold lower: 38.8 nM for the first, 450 nM for the second.

Going from `COc1nc(C2=NOCC(c3c[nH]c4ccccc34)N2)ccc1-n1cnc(C)c1` (single isomer, unassigned) [Example 47A, 5-(1H-indol-3-yl)-3-(6-methoxy-5-(4-methyl-1H-imidazol-1-yl)pyridin-2-yl)-5,6-dihydro-4H-1,2,4-oxadiazine] to `COc1nc(C2=NOCC(c3noc4ccccc34)N2)ccc1-n1cnc(C)c1` (single isomer, unassigned) [Example 174B, 3-(3-(6-methoxy-5-(4-methyl-1H-imidazol-1-yl)pyridin-2-yl)-5,6-dihydro-4H-1,2,4-oxadiazin-5-yl) benzo[d]isoxazole], the EC50 rises from 136 nM to 281 nM (2.1-fold).

Going from `COc1nc(C2=NOCC(c3cc4ccccc4o3)N2)ccc1-n1cnc(C)n1` (single isomer, unassigned; (+)) [Example 31B, (+)-5-(Benzofuran-2-yl)-3-(6-methoxy-5-(3-methyl-1H-1,2,4-triazol-1-yl)pyridin-2-yl)-5,6-dihydro-4H-1,2,4-oxadiazine] to `COc1nc(C2=NOCC(c3sc4ccccc4c3C)N2)ccc1-n1cnc(C)c1` (single isomer, unassigned; (+)) [Example 66B, (+)-3-(6-methoxy-5-(4-methyl-1H-imidazol-1-yl)pyridin-2-yl)-5-(3-methylbenzo [b]thiophen-2-yl)-5,6-dihydro-4H-1,2,4-oxadiazine], the EC50 falls from 636 nM to 9.1 nM (70-fold). The second is the more potent here.

Compared with `COc1nc(C2=NOCC(c3ccc(Cl)cc3C)N2C)ccc1-n1cnc(C)c1` (single isomer, unassigned) [Example 27A, 5-(4-chloro-2-methylphenyl)-3-(6-methoxy-5-(4-methyl-1H-imidazol-1-yl)pyridin-2-yl)-4-methyl-5,6-dihydro-4H-1,2,4-oxadiazine], `COc1nc(C2=NOCC(c3cccc(C(F)(F)F)c3)N2C)ccc1-n1cnc(C)c1` (stereo not shown) [Example 30B, 3-(6-methoxy-5-(4-methyl-1H-imidazol-1-yl)pyridin-2-yl)-4-methyl-5-(3-(trifluoromethyl)phenyl)-5,6-dihydro-4H-1,2,4-oxadiazine] is higher in EC50: 2180 nM for the first, over 3000 nM for the second. The first is the more potent here.

First: COc1nc(C2=NOCC(C3CCCCC3)N2)ccc1-n1cnc(C)c1 (single isomer, unassigned; (-)) [Example 61A, (−)-5-cyclohexyl-3-(6-methoxy-5-(4-methyl-1H-imidazol-1-yl)pyridin-2-yl)-5,6-dihydro-4H-1,2,4-oxadiazine]
Second: COc1nc(C2=NOCC(c3cscn3)N2)ccc1-n1cnc(C)c1 (single isomer, unassigned; (-)) [Example 156B, (−)-3-(6-methoxy-5-(4-methyl-1H-imidazol-1-yl)pyridin-2-yl)-5-(thiazol-4-yl)-5,6-dihydro-4H-1,2,4-oxadiazine]
The EC50 of the first is lower: 775 nM for the first, over 3000 nM for the second.

`COc1nc(C2=NOCC(c3cn(C(C)C)c4cccc(F)c34)N2)ccc1-n1cnc(C)c1` (single isomer, unassigned; (+)) [Example 196A, (+)-5-(4-fluoro-1-isopropyl-1H-indol-3-yl)-3-(6-methoxy-5-(4-methyl-1H-imidazol-1-yl)pyridin-2-yl)-5,6-dihydro-4H-1,2,4-oxadiazine] was tested, and the EC50 was 22.5 nM.
